Data as given in US8865659B2, “Compositions for prevention or treatment of Hepatitis C virus containing ginsenoside Rg3 as an active ingredient” (priority 2012, dated 2014).

Key:
Type in all cases: cell-based
[1] = tested on: Hepatitis C virus (JFH-1); assay: Real-time PCR against JFH-1 mRNA in Huh 7.5.1 cells; details: 100 μM, 72 hours
Experimental: The experiment was carried out as follow. First, 200,000 Huh 7.5.1 cells were placed in a 60×15 mm cell culture dish. Next day, Japanese Fulminant Hepatitis-1 virus (JFH-1) stock vial which was stored in −70° C. refrigerator was taken out and thawed out in a container filled with ice-water. The culture medium was collected from the cultured 60×15 mm cell culture dish, washed with 1×PBS and collected, again. 1.5 ml of JFH-1 virus solution per 60×15 mm cell culture dish each was added. The dish was shaken to cover the surface sufficiently. The dish was laid in a 5% CO2 incubator at 37° C. for 6 hours and after that, the supernatant was draw out. 1×PBS was spread on the cell surface as slow as possible and after one time washing, cells were collected. 5 ml of cell culture media was added to control and JFH-1 treatments groups. […] After that, the cell culture media was laid in a 5% CO2 incubator at 37° C. After 72 hours, the following steps were carried out.
As described in the above Example 3, the Huh 7.5.1 cells were treated with each 100 μM of seven ginsenosides (Ro, Re, Rg1, Rg2, Rg3, Rh1, Rh2). After 72 hours, a real-time PCR against JFH-1 mRNA was carried out. […]
Specific real-time PCR carried out was as follow. […] After that, total RNA was extracted from the cells treated by the above described method by using Rneasy mini kit (QIAGEN) and quantified by using Nanodrop 1000 (Thermo Scientific). […]

[2] = tested on: JFH-1 virus infected Huh 7.5.1 cell; assay: MTT assay, cytotoxicity of ginsenosides on liver cancer cell line; details: 10, 25, 50 and 100 μL concentration (so in the source), 72 hours
Experimental: MTT assay was conducted to identify cytotoxicity of ginsenosides.
Specifically, the cells (Huh7.5.1) were seeded at the rate of 1×10^4 cells (in 100 μL)/well in 96 well plates, and incubated in 5% CO2 incubator for less than 24 hours. And after the samples were washed with 1×PBS once and treated with the rate of 50 ul JFH-1 virus/well, and replaced in the 5%, CO2 incubator for six hours. After taking out the cell samples from the incubator, the samples were washed with 1×PBS once and replaced in the culturing media comprising 10, 25, 50 and 100 μL concentration of the above stated seven (7) ginsenosides in Example 3, respectively. After the cells were incubated in 5% CO2 incubator for 72 hours, 20 μl of assay reagent, EZ Cytox, was seeded into each well with the care of no bubble producing. And then, the treated cells were incubated in 5% CO2 incubator for 2.5 hours, followed by examining absorbance at 420 nm with Microplate Reader (Molecular Devices, Minn.). DMSO was the solvent used when treating with ginsenoside, and both the control group and the cells infected with JFH-1 group were also treated with the solvent DMSO.

[3] = tested on: cleaved PARP; assay: Western blotting against cleaved PARP (apoptosis) in JFH-1 infected Huh 7.5.1 cells
Experimental: The experiment was carried out as follow. First, 200,000 Huh 7.5.1 cells were placed in a 60×15 mm cell culture dish. Next day, Japanese Fulminant Hepatitis-1 virus (JFH-1) stock vial which was stored in −70° C. refrigerator was taken out and thawed out in a container filled with ice-water. The culture medium was collected from the cultured 60×15 mm cell culture dish, washed with 1×PBS and collected, again. 1.5 ml of JFH-1 virus solution per 60×15 mm cell culture dish each was added. The dish was shaken to cover the surface sufficiently. The dish was laid in a 5% CO2 incubator at 37° C. for 6 hours and after that, the supernatant was draw out. 1×PBS was spread on the cell surface as slow as possible and after one time washing, cells were collected. 5 ml of cell culture media was added to control and JFH-1 treatments groups. At the last step of virus-infection, 5 ml CM and each […] of ginsenosides which was set to 50 mM concentration were added to the cell culture media. After that, the cell culture media was laid in a 5% CO2 incubator at 37° C. After 72 hours, the following steps were carried out.
As described in the above Example 3, the Huh 7.5.1 cells were treated with each 100 μM of seven ginsenosides (Ro, Re, Rg1, Rg2, Rg3, Rh1, Rh2). After 72 hours, a western blotting analysis was carried out for analyzing virus suppression effect against HCV CORE and cleaved PARP. […]

## CC(C)=CCC[C@](C)(O)[C@H]1CC[C@]2(C)[C@@H]1[C@H](O)C[C@@H]1[C@@]3(C)CC[C@H](O[C@@H]4O[C@H](CO)[C@@H](O)[C@H](O)[C@H]4O[C@@H]4O[C@H](CO)[C@@H](O)[C@H](O)[C@H]4O)C(C)(C)[C@@H]3CC[C@]12C [ginsenoside Rg3]
[1]
  JFH-1 mRNA: remarkably decreased
[2]
  cytotoxicity (MTT assay): no cytotoxicity
[3]; 10 μM, 25 μM, 50 μM and 100 μM
  apoptosis of the cells (cleaved PARP), dose dependence: dose-dependent manner
[3]; 100 μM, 72 hours
  cleaved PARP: decreased
